Test results published in US20030224937A1, “Selective herbicidal composition” (priority 1994, published 2003).

Test system: Maize
Assay: Preemergence phytotoxic action of the herbicide of formula I and of mixtures of herbicide and safener of formula II on maize
Type: in vivo
Conditions: no safener, 22 days
Text: Preemergence Phytoxic Action of the Herbicide of Formula I and of the Mixtures of Herbicide and Safener of Formula II on Maize
Maize is sown in standard soil in plastic pots. Immediately after sowing, the pots are sprayed with an aqueous suspension of the test substances (500 l of water/ha) prepared from one of the above formulations 1 to 8. The concentration of herbicide of formula I is 4000, 3000 and 2000 g/ha. The safener No. 1.006 is applied in a ratio to the herbicide of 1:18, 1:24 and 1:30. The test plants are afterwards cultivated in a greenhouse under optimum conditions. The phytotoxic action of the herbicide on the maize (percentage phytotoxicity) is evaluated after a test duration of 22 days.

Structure (SMILES): CCc1cccc(C)c1N(C(=O)CCl)[C@@H](C)COC [formula I, aRS,1′S(−)N-(1′-methyl-2′-methoxyethyl)-N-chloracetyl-2-ethyl-6-methylaniline]
- % Phytotoxicity (herbicide of formula I 4000 g/ha, greenhouse): 65%
- % Phytotoxicity (series b), herbicide of formula I 2000 g/ha (so in the source)): 55%
- % Phytotoxicity (series c), herbicide of formula I 2000 g/ha): 25%
